Reference: ChEMBL document CHEMBL1149126, “3-phenyl-6-(2-pyridyl)methyloxy-1,2,4-triazolo[3,4-a]phthalazines and analogues: high-affinity gamma-aminobutyric acid-A benzodiazepine receptor ligands with alpha 2, alpha 3, and alpha 5-subtype binding selectivity over alpha 1” (J Med Chem, 2004)

biological target: T1, GABA-A receptor; alpha-2/beta-3/gamma-2 (Homo sapiens, UniProt P18507+P28472+P47869); assay: Binding affinity for human GABA-A receptor alpha-2-beta-3-gamma-2 subunits in L(tk-) cells; format: cell-based
T1 sequence (P18507 whole entry): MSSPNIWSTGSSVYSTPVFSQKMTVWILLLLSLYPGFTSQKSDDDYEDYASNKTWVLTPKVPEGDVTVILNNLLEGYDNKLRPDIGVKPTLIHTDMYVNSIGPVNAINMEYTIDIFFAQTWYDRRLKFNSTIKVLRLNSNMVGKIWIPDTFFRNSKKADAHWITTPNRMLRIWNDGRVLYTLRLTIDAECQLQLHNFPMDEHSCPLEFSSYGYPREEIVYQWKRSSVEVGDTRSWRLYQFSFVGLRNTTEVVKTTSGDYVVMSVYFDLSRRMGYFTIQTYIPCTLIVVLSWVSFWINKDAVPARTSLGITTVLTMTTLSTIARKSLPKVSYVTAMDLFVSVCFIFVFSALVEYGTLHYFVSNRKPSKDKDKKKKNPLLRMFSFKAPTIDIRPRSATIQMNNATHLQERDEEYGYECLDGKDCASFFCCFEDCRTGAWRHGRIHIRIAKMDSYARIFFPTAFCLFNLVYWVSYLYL
T1 sequence (P28472 whole entry): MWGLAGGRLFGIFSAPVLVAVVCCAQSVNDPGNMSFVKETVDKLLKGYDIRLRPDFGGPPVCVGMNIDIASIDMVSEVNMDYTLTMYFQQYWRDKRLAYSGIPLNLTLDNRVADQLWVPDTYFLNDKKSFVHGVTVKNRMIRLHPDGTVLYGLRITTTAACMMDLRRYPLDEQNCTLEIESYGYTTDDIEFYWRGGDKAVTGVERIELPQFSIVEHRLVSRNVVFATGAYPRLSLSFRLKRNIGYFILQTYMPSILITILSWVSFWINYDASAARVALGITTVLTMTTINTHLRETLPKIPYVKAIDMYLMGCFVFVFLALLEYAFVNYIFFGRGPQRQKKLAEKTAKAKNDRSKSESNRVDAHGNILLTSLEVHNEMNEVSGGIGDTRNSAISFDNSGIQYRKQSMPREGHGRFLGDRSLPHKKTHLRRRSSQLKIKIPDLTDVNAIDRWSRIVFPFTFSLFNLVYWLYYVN
T1 sequence (P47869 whole entry): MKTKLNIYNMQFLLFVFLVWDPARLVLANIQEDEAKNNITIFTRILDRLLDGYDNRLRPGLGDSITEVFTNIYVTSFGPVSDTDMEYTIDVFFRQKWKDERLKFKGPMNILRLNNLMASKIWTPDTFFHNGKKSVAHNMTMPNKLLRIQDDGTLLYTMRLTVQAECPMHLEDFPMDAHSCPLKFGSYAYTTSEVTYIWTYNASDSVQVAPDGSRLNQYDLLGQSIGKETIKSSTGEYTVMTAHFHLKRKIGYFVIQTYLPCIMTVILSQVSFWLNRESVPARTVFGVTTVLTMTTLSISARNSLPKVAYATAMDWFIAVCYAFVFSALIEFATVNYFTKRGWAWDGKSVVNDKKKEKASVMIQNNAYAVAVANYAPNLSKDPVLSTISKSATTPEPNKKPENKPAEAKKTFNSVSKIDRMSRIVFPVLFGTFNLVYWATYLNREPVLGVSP

Ki	Structure (SMILES)
8 nM	Cc1cccc(COc2nn3c(-c4ccccc4)nnc3c3ccccc23)n1
5.8 nM	c1ccc(COc2nn3c(C4CC4)nnc3c3ccccc23)nc1
470 nM	Cc1nnc2c3ccccc3c(OCc3ccccn3)nn12
28 nM	C=Cc1nnc2c3ccccc3c(OCc3ccccn3)nn12
2.2 nM	Cc1ccc2c(c1)c(OCc1ccccn1)nn1c(-c3ccccc3)nnc21
> 1000 nM	c1ccc(-c2nnc3c4ccccc4c(OCC4CCCCC4)nn23)cc1

biological target: T2, GABA-A receptor; alpha-3/beta-3/gamma-2 (Homo sapiens) (UniProt P18507+P28472+P34903); assay: Inverse agonistic activity against GABA-A receptor alpha-3-beta-3-gamma-2 subunits; format: functional

Activity	Structure (SMILES)
-26%	c1ccc(COc2nn3c(C4CC4)nnc3c3ccccc23)nc1

biological target: T2, GABA-A receptor; alpha-3/beta-3/gamma-2 (Homo sapiens); assay: Partial agonistic activity against GABA-A receptor alpha-3-beta-3-gamma-2 subunits; format: functional

Activity	Structure (SMILES)
-8%	Cc1cccc(COc2nn3c(-c4ccccc4)nnc3c3ccccc23)n1

biological target: T3, GABA-A receptor; alpha-1/beta-3/gamma-2 (Homo sapiens, UniProt P14867+P18507+P28472); assay: Binding affinity for human GABA-A receptor alpha-1-beta-3-gamma-2 subunits in L(tk-) cells
T3 sequence (P14867 whole entry): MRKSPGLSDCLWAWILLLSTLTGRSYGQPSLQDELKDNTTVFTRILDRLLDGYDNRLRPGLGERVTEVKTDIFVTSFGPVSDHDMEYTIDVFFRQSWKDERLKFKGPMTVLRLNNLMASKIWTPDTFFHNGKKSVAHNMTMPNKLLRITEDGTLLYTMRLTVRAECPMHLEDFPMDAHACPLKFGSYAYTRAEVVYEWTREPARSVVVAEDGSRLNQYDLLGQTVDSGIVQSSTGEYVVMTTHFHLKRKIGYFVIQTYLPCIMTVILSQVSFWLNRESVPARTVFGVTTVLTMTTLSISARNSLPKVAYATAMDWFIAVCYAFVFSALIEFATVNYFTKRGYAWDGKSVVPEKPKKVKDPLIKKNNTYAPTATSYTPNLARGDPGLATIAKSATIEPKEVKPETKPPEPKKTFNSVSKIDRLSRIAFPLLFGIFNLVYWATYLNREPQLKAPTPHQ
T3 sequence (P18507 whole entry): T1 sequence (P18507 whole entry)
T3 sequence (P28472 whole entry): T1 sequence (P28472 whole entry)

Ki	Structure (SMILES)
8.4 nM	Cc1cccc(COc2nn3c(-c4ccccc4)nnc3c3ccccc23)n1
16 nM	c1ccc(COc2nn3c(C4CC4)nnc3c3ccccc23)nc1
900 nM	Cc1nnc2c3ccccc3c(OCc3ccccn3)nn12
49 nM	C=Cc1nnc2c3ccccc3c(OCc3ccccn3)nn12
2.2 nM	Cc1ccc2c(c1)c(OCc1ccccn1)nn1c(-c3ccccc3)nnc21
> 1000 nM	c1ccc(-c2nnc3c4ccccc4c(OCC4CCCCC4)nn23)cc1

biological target: GABA-A receptor; alpha-2/beta-3/gamma-2 (Homo sapiens) (UniProt P18507+P28472+P47869); assay: Partial agonistic activity against GABA-A receptor alpha-2-beta-3-gamma-2 subunits; format: functional

Activity	Structure (SMILES)
-4%	Cc1cccc(COc2nn3c(-c4ccccc4)nnc3c3ccccc23)n1

biological target: T4, GABA-A receptor; alpha-5/beta-3/gamma-2 (Homo sapiens, UniProt P18507+P28472+P31644); assay: Binding affinity for human GABA-A receptor alpha-5-beta-3-gamma-2 subunits in L(tk-) cells; format: cell-based
T4 sequence (P18507 whole entry): T1 sequence (P18507 whole entry)
T4 sequence (P28472 whole entry): T1 sequence (P28472 whole entry)
T4 sequence (P31644 whole entry): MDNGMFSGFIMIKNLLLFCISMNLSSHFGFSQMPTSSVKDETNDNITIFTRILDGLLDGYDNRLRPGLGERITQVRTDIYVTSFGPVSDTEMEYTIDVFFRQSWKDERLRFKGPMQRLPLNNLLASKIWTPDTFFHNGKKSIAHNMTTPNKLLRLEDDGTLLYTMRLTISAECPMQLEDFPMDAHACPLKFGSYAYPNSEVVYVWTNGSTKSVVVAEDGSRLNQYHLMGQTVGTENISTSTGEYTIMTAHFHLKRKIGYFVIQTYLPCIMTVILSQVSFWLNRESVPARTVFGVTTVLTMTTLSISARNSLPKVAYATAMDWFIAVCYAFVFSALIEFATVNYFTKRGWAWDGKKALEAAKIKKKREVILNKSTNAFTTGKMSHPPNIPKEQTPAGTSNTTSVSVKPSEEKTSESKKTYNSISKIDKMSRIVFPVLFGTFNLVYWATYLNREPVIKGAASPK

Ki	Structure (SMILES)
2.5 nM	Cc1cccc(COc2nn3c(-c4ccccc4)nnc3c3ccccc23)n1
0.74 nM	c1ccc(COc2nn3c(C4CC4)nnc3c3ccccc23)nc1
29 nM	Cc1nnc2c3ccccc3c(OCc3ccccn3)nn12
3.2 nM	C=Cc1nnc2c3ccccc3c(OCc3ccccn3)nn12
0.64 nM	Cc1ccc2c(c1)c(OCc1ccccn1)nn1c(-c3ccccc3)nnc21
> 1000 nM	c1ccc(-c2nnc3c4ccccc4c(OCC4CCCCC4)nn23)cc1

biological target: T2, GABA-A receptor; alpha-3/beta-3/gamma-2 (Homo sapiens); assay: Maximum percent change compared to GABA EC20 against GABA-A alpha-3-beta-3-gamma-2 receptor; format: functional

Efficacy	Structure (SMILES)
-31%	C=Cc1nnc2c3ccccc3c(OCc3ccccn3)nn12
27%	Cc1ccc2c(c1)c(OCc1ccccn1)nn1c(-c3ccccc3)nnc21

biological target: T5, GABA-A receptor; alpha-1/beta-3/gamma-2 (Homo sapiens) (UniProt P14867+P18507+P28472); assay: Inverse agonistic activity against GABA-A receptor alpha-1-beta-3-gamma-2 subunits; format: functional

Activity	Structure (SMILES)
-20%	c1ccc(COc2nn3c(C4CC4)nnc3c3ccccc23)nc1

biological target: T5, GABA-A receptor; alpha-1/beta-3/gamma-2 (Homo sapiens); assay: Partial agonistic activity against GABA-A receptor alpha-1-beta-3-gamma-2 subunits; format: functional

Activity	Structure (SMILES)
1%	Cc1cccc(COc2nn3c(-c4ccccc4)nnc3c3ccccc23)n1

biological target: T2, GABA-A receptor; alpha-3/beta-3/gamma-2 (Homo sapiens); assay: Agonistic activity against GABA-A receptor alpha-3-beta-3-gamma-2; format: functional

Activity	Structure (SMILES)
-38%	Cc1nnc2c3ccccc3c(OCc3ccccn3)nn12

biological target: T5, GABA-A receptor; alpha-1/beta-3/gamma-2 (Homo sapiens); assay: Maximum percent change compared to GABA EC20 against GABA-A alpha-1-beta-3-gamma-2 receptor; format: functional

Efficacy	Structure (SMILES)
65%	Cc1ccc2c(c1)c(OCc1ccccn1)nn1c(-c3ccccc3)nnc21

biological target: T6, GABA-A receptor; alpha-3/beta-3/gamma-2 (Homo sapiens, UniProt P18507+P28472+P34903); assay: Binding affinity for human GABA-A receptor alpha-3-beta-3-gamma-2 subunits in L(tk-) cells; format: cell-based
T6 sequence (P18507 whole entry): T1 sequence (P18507 whole entry)
T6 sequence (P28472 whole entry): T1 sequence (P28472 whole entry)
T6 sequence (P34903 whole entry): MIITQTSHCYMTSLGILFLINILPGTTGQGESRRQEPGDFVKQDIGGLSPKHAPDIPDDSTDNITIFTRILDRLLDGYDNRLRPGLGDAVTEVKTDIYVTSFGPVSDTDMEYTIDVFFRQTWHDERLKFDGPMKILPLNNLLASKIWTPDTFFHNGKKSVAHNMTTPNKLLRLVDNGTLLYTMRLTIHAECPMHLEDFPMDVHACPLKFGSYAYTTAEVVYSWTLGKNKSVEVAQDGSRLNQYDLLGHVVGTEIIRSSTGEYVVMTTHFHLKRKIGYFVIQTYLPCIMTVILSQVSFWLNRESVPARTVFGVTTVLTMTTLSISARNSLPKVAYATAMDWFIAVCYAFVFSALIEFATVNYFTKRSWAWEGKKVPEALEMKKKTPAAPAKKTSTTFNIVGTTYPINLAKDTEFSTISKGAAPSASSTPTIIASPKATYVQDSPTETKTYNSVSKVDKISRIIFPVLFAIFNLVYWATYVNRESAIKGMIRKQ

Ki	Structure (SMILES)
1.2 nM	Cc1cccc(COc2nn3c(-c4ccccc4)nnc3c3ccccc23)n1
2.6 nM	c1ccc(COc2nn3c(C4CC4)nnc3c3ccccc23)nc1
81 nM	Cc1nnc2c3ccccc3c(OCc3ccccn3)nn12
11 nM	C=Cc1nnc2c3ccccc3c(OCc3ccccn3)nn12
1.2 nM	Cc1ccc2c(c1)c(OCc1ccccn1)nn1c(-c3ccccc3)nnc21
> 1000 nM	c1ccc(-c2nnc3c4ccccc4c(OCC4CCCCC4)nn23)cc1

biological target: GABA-A receptor; alpha-5/beta-3/gamma-2 (Homo sapiens) (UniProt P18507+P28472+P31644); assay: Efficacy at human GABA-A receptor alpha-5-beta-3-gamma-2 subunits

Efficacy	Structure (SMILES)
11%	Cc1cccc(COc2nn3c(-c4ccccc4)nnc3c3ccccc23)n1
